Data on 26 compounds can be found in US11807650B2, “NMDA receptor modulators and uses thereof” (Novartis AG, priority 2016, dated 2023).

A value given as a limit tells only on which side of the number the result lay.

The target in the assay is T1, human GRIN1 (transcript variant NR1-3) and GRIN2D expressed in Xenopus oocytes (Homo sapiens, UniProt O15399).
T1 construct: GenScript (GRIN2D synthesis) SC115601; host or cells: Xenopus oocytes injected with cRNA (1 GluN1 : 2 GluN2)
T1 sequence (O15399 28-1336, other chains not shown): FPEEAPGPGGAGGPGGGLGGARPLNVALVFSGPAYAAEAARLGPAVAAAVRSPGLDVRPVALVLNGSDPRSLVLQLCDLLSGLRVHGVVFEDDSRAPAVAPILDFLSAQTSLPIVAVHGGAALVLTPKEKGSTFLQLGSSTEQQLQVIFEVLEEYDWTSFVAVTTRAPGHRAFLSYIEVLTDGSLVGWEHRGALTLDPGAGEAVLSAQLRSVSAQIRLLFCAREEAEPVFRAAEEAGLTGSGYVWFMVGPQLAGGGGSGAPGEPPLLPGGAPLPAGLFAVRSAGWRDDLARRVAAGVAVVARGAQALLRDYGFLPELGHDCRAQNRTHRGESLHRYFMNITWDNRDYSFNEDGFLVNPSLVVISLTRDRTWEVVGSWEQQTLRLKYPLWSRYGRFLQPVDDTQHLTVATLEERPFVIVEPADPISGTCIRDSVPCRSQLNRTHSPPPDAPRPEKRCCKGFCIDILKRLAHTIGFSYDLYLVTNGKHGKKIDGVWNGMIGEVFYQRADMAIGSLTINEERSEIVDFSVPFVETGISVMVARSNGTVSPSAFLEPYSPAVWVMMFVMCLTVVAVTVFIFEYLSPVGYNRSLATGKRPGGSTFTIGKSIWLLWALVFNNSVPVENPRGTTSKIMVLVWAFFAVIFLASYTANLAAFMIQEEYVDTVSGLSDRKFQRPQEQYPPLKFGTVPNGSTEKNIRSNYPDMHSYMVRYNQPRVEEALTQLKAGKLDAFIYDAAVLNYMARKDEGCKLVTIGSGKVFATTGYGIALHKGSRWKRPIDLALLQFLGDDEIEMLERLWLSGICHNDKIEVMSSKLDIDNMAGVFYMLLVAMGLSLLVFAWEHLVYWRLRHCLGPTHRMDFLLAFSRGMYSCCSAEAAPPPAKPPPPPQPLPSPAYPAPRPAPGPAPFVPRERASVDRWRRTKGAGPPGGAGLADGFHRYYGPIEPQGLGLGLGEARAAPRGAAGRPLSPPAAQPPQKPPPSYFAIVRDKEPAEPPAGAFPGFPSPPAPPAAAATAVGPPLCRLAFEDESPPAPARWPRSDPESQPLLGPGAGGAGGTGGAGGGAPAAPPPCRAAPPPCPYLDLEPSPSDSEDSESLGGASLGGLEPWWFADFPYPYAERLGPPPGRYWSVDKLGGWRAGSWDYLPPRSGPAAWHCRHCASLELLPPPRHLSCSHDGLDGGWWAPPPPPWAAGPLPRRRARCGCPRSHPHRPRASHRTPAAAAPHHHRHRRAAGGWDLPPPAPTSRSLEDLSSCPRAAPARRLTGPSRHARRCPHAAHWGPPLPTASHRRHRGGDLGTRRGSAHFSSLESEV
Kind of assay: NR2D oocyte potentiation assay (two-electrode voltage clamp). Type of assay: cell-based. The note with it: 10 uM test compound; glutamate and glycine 10 μM each; holding potential −40 mV. On the procedure:
NR2D Oocyte Potentiation Assay. Xenopus oocytes (Xenopus 1, Dexter, Mich.) were initially separated from the lobes of an ovary using surgical forceps; they were then defolliculated by constant agitation at room temperature in OR-2 buffer (82.5 mM NaCl; 2.5 mM KCl; 1 mM MgCl2; 5 mM HEPES; pH 7.4) containing 2 mg/ml collagenase Type 1 (Fisher Scientific, USA) for 1.5-2 hours. The cells were then gently aspirated with a Pasteur pipette to remove the follicular tissue; this was followed by washing three times with OR-2 to remove all traces of collagenase. The oocytes were then washed in ND-96 (96 mM NaCl, 2 mM KCl, 1.8 mM CaCl2, 1 mM MgCl2, 5 mM HEPES, 50 ng/L gentamycin, 100 units/ml penicillin and 100 μg/ml streptomycin; pH 7.6) three times and this was followed by incubation in ND-96 at room temperature with mild agitation for 15 minutes; subsequently they were stored for at least 2 hours at 16° C. before sorting and selection for injection. Oocytes selected for injection were incubated overnight in ND-96 at 16° C.
The human GRIN1 (transcript variant NR1-3 (Origene, SKU #: SC115601, Rockville, Md.) and GRIN2D (NCBI locus NM_000836, sequence optimized and synthesized by GenScript) were linearized and transcribed using the mMessage mMachine kit (Life Technologies) and promoters SP6 (for GluN1) and T7 (for GluN2D). cRNAs were mixed together at a ratio of 1 GluN1:2 GluN2. Each oocyte was injected with 50 nL of cRNA and stored in ND96 (96 mM NaCl, 2 mM KCl, 1.8 mM CaCl2, 1 mM MgCl2, 5 mM HEPES, 50 ng/L gentamycin, 100 units/ml penicillin and 100 μg/ml streptomycin; pH 7.6) at 16° C. for 72 h prior to recording.
Currents were recorded using a two-electrode voltage-clamp amplifier (Oocyte Clamp OC-725C; Warner Instrument Corp, Hamden, Conn.), and digitized using Digidata 1550A and pClamp (v. 10) software (Molecular Devices, Sunnyvale, Calif.). Electrodes were filled with 3 M KCl and had resistances that ranged from 0.2-1 MO. All measurements were made at a holding potential of −40 mV. Cells were continuously perfused with oocyte recording solution containing 90 mM NaCl, 1 mM KCl, 0.5 mM BaCl2, and 10 mM HEPES (Ph 7.4). Glutamate and Glycine (co-agonists) were applied at respective concentrations of 10 μM each. Co-agonists were applied until a plateau was reached, and test compounds were then added in the continued presence of co-agonists until a new plateau was reached. After the addition of the last test compound concentration, the oocyte was washed with oocyte recording buffer. Fraction of current remaining was calculated as [(current in presence of test compound−background current)/(co-agonist current−background current)] and IC50 values were computed using Prism 6.0 (Graphpad).
Background: In two-electrode clamp one electrode senses voltage and the other passes current.
Turning to `CC1CSc2cc(-c3cnc(C(C)(C)C)nc3)c(C#N)c(=O)n2C1` (centres unmarked) [Example 71, 8-(2-(tert-butyl)pyrimidin-5-yl)-3-methyl-6-oxo-3,4-dihydro-2H,6H-pyrido[2,1-b][1,3]thiazine-7-carbonitrile], the activation at 10 µM was more than 1000%.
The same measure, in the same setting: to `C[C@@H]1CSc2cc(-c3ccc(C(C)(C)C)nc3)c(C#N)c(=O)n2C1` [Example 97, (S)-8-(6-(tert-butyl)pyridin-3-yl)-3-methyl-6-oxo-3,4-dihydro-2H,6H-pyrido[2,1-b][1,3]thiazine-7-carbonitrile] belongs more than 1000%; to `COc1cc(C(C)(C)C)ccc1-c1nc2n(c(=O)c1C#N)CCCS2` [Example 193, 8-(4-tert-butyl-2-methoxyphenyl)-6-oxo-2H,3H,4H,6H-pyrimido[2,1-b][1,3]thiazine-7-carbonitrile], 100 to 500%.
The same measure, in the same setting: to `COCOC[C@@H]1CSc2nc(-c3cnc(C(C)(C)C)c(F)c3)c(C#N)c(=O)n2C1` [Example 172, (R)-8-(6-(tert-butyl)-5-fluoropyridin-3-yl)-3-((methoxymethoxy)methyl)-6-oxo-3,4-dihydro-2H,6H-pyrimido[2,1-b][1,3]thiazine-7-carbonitrile] belongs more than 1000%; to `COCOCC1CSc2nc(-c3cnc(C(C)(C)C)c(F)c3)c(C#N)c(=O)n2C1` (centres unmarked) [Example 170, 8-(6-(tert-butyl)-5-fluoropyridin-3-yl)-3-((methoxymethoxy)methyl)-6-oxo-3,4-dihydro-2H,6H-pyrimido[2,1-b][1,3]thiazine-7-carbonitrile], more than 1000%.
Same read-out and setting: to `C=C1CSc2nc(-c3ccc(C(C)(C)C)nc3)c(C#N)c(=O)n2C1` [Example 114, 8-(6-(tert-butyl)pyridin-3-yl)-3-methylene-6-oxo-3,4-dihydro-2H,6H-pyrimido[2,1-b][1,3]thiazine-7-carbonitrile] belongs more than 1000%.
Turning to `N#Cc1c(-c2ccc(N3CC(F)(F)C3)nc2)nc2n(c1=O)CCCS2` [Example 55, 8-(6-(3,3-difluoroazetidin-1-yl)pyridin-3-yl)-6-oxo-3,4-dihydro-2H,6H-pyrimido[2,1-b][1,3]thiazine-7-carbonitrile], the “NR2D Oocyte % Potentiation @ 10 uM” value was “Inhibitor”.
For `C[C@@H]1CSc2nc(-c3ccc(C4(C)CC4)nc3)c(C#N)c(=O)n2C1` [Example 116, (S)-3-methyl-8-(6-(1-methylcyclopropyl)pyridin-3-yl)-6-oxo-3,4-dihydro-2H,6H-pyrimido[2,1-b][1,3]thiazine-7-carbonitrile], the activation at 10 µM was more than 1000%.
`Cc1ccc2nc(-c3cnc(C(C)(C)C)nc3)c(C#N)c(=O)n2c1` [Example 22, 2-(2-(tert-butyl)pyrimidin-5-yl)-7-methyl-4-oxo-4H-pyrido[1,2-a]pyrimidine-3-carbonitrile]: the activation at 10 µM was 100 to 500%.
Still for that read-out and setting: then `CC(=O)NCC1CSc2nc(-c3cnc(C(C)(C)C)c(F)c3)c(C#N)c(=O)n2C1` (centres unmarked) [Example 146, N-((8-(6-(tert-butyl)-5-fluoropyridin-3-yl)-7-cyano-6-oxo-3,4-dihydro-2H,6H-pyrimido[2,1-b][1,3]thiazin-3-yl)methyl)acetamide], with more than 1000%; and `COCC1CSc2nc(-c3cnc(C(C)(C)C)c(F)c3)c(C#N)c(=O)n2C1` (centres unmarked) [Example 125, 8-(6-(tert-butyl)-5-fluoropyridin-3-yl)-3-(methoxymethyl)-6-oxo-3,4-dihydro-2H,6H-pyrimido[2,1-b][1,3]thiazine-7-carbonitrile], with more than 1000%; and `CC1CSc2nc(-c3ccc(C4(C)CC4)nc3)c(C#N)c(=O)n2C1` (centres unmarked) [Example 108, 3-methyl-8-(6-(1-methylcyclopropyl)pyridin-3-yl)-6-oxo-3,4-dihydro-2H,6H-pyrimido[2,1-b][1,3]thiazine-7-carbonitrile], with 500 to 1000%.
Same read-out and setting: to `CC(C)(C)c1ncc(-c2nc3n(c(=O)c2C#N)CC(C(=O)N2CCOCC2)CS3)cc1F` (centres unmarked) [Example 162, 8-(6-(tert-butvl)-5-fluoropyndin-3-yl)-3-(morpholine-4-carbonyl)-6-oxo-3,4-dihydro-2H,6H-pyrimido[2,1-b][1,3]thiazine-7-carbonitrile] belongs 100 to 500%.
`CC1(C)CN(c2ccc(-c3nc4n(c(=O)c3C#N)CCCS4)cn2)C1` [Example 54, 8-(6-(3,3-dimethylazetidin-1-yl)pyridin-3-yl)-6-oxo-3,4-dihydro-2H,6H-pyrimido[2,1-b][1,3]thiazine-7-carbonitrile]: the “NR2D Oocyte % Potentiation @ 10 uM” value is “Inhibitor”.
Turning to `C[C@@H]1CSc2cc(-c3ccc(C4(C)CC4)nc3)c(C#N)c(=O)n2C1` [Example 118, (S)-3-methyl-8-(6-(1-methylcyclopropyl)pyridin-3-yl)-6-oxo-3,4-dihydro-2H,6H-pyrido[2,1-b][1,3]thiazine-7-carbonitrile], the activation at 10 µM is more than 1000%.
In the case of `CCN1CSc2nc(-c3ccc(C(C)(C)C)cc3)c(C#N)c(=O)n2C1` [Example 7, 8-(4-(tert-butyl)phenyl)-3-ethyl-6-oxo-3,4-dihydro-2H,6H-pyrimido[2,1-b][1,3,5]thiadiazine-7-carbonitrile], the activation at 10 µM lay in the range of 10 to 100%.
As to `COCC1CSc2nc(-c3cnc(C(C)(C)C)nc3)c(C#N)c(=O)n2C1` (centres unmarked) [Example 124, 8-(2-(tert-butyl)pyrimidin-5-yl)-3-(methoxymethyl)-6-oxo-3,4-dihydro-2H,6H-pyrimido[2,1-b][1,3]thiazine-7-carbonitrile], the activation at 10 µM was in the range of 500 to 1000%.
On the same count and under the same terms, then `C[C@H]1CSc2cc(-c3ccc(C(C)(C)C)nc3)c(C#N)c(=O)n2C1` [Example 96, (R)-8-(6-(tert-butyl)pyridin-3-yl)-3-methyl-6-oxo-3,4-dihydro-2H,6H-pyrido[2,1-b][1,3]thiazine-7-carbonitrile], with more than 1000%; and `CC(C)(C)c1ccc(-c2nc3n(c(=O)c2C#N)CC(CF)CS3)cn1` (centres unmarked) [Example 88, 8-(6-(tert-butyl)pyridin-3-yl)-3-(fluoromethyl)-6-oxo-3,4-dihydro-2H,6H-pyrimido[2,1-b][1,3]thiazine-7-carbonitrile], with 500 to 1000%; and `CN(C)c1ccc(-c2nc3n(c(=O)c2C#N)CCCS3)cn1` [Example 66, 8-(6-(dimethylamino)pyridin-3-yl)-6-oxo-3,4-dihydro-2H,6H-pyrimido[2,1-b][1,3]thiazine-7-carbonitrile], with 10 to 100%.
Regarding `C[C@@H]1CSc2nc(-c3cnc(C(C)(C)C)nc3)c(C#N)c(=O)n2C1` [Example 74, (S)-8-(2-(tert-butyl)pyrimidin-5-yl)-3-methyl-6-oxo-3,4-dihydro-2H,6H-pyrimido[2,1-b][1,3]thiazine-7-carbonitrile], the activation at 10 µM fell in the range of 500 to 1000%.
On the same count and under the same terms, to `C[C@@H]1CSc2cc(-c3cnc(C(C)(C)C)c(F)c3)c(C#N)c(=O)n2C1` [Example 107, (S)-8-(6-(tert-butyl)-5-fluoropyridin-3-yl)-3-methyl-6-oxo-3,4-dihydro-2H,6H-pyrido[2,1-b][1,3]thiazine-7-carbonitrile] belongs 500 to 1000%.
In the case of `CC1CSc2nc(-c3ccc(N4CC(C)(C)C4)nc3)c(C#N)c(=O)n2C1` (centres unmarked) [Example 52, 8-(6-(3,3-dimethylazetidin-1-yl)pyridin-3-yl)-3-methyl-6-oxo-3,4-dihydro-2H,6H-pyrimido[2,1-b][1,3]thiazine-7-carbonitrile], the “NR2D Oocyte % Potentiation @ 10 uM” value was “Inhibitor”.
For the compound `Cc1c(-c2ccc(C(C)(C)C)cc2)nc2n(c1=O)CCCS2` [Example 29, 8-(4-(tert-butyl)phenyl)-7-methyl-3,4-dihydro-2H,6H-pyrimido[2,1-b][1,3]thiazin-6-one], the activation at 10 µM lay within 10 to 100%.
Still for that read-out and setting: to `CC(C)(C)c1ncc(-c2nc3n(c(=O)c2C#N)C[C@@H](CO)CS3)cn1` [Example 137, (S)-8-(2-(tert-butyl)pyrimidin-5-yl)-3-(hydroxymethyl)-6-oxo-3,4-dihydro-2H,6H-pyrimido[2,1-b][1,3]thiazine-7-carbonitrile] belongs 100 to 500%; to `CC(C)(C)c1ncc(-c2nc3n(c(=O)c2C#N)CC(CO)CS3)cc1F` (centres unmarked) [Example 92, 8-(6-(tert-butyl)-5-fluoropyridin-3-yl)-3-(hydroxymethyl)-6-oxo-3,4-dihydro-2H,6H-pyrimido[2,1-b][1,3]thiazine-7-carbonitrile], more than 1000%.
